Measured values as given in the NIST ThermoML archive (doi:10.1016/j.jct.2017.03.027).
± gives the expanded uncertainty stated by the source.

What was measured:
[1] = molar heat capacity at constant pressure; conditions: 100 kPa, Liquid, Large sample (1 g) DSC
[2] = 100 kPa, Liquid, Vibrating tube method
[3] = xn = mol fraction of the nth substance listed; conditions: 100 kPa, Liquid, Vibrating tube method, x2 = 0
[4] = molar heat capacity at constant pressure; xn = mol fraction of the nth substance listed; conditions: 100 kPa, Liquid, Large sample (1 g) DSC, x2 = 0

molar heat capacity at constant pressure ([1]; 298.6 K) [J/K/mol] | molar heat capacity at constant pressure ([1]; 308.5 K) [J/K/mol] | molar heat capacity at constant pressure ([1]; 318.5 K) [J/K/mol] | molar heat capacity at constant pressure ([1]; 328.4 K) [J/K/mol] | mass density ([2]; 298.15 K) [kg/m3] | mass density ([2]; 308.15 K) [kg/m3] | mass density ([2]; 318.15 K) [kg/m3] | mass density ([2]; 328.15 K) [kg/m3] | SMILES | mass density ([3]; 298.15 K) [kg/m3] | mass density ([3]; 308.15 K) [kg/m3] | mass density ([3]; 318.15 K) [kg/m3] | mass density ([3]; 328.15 K) [kg/m3] | molar heat capacity at constant pressure ([4]; 298.6 K) [J/K/mol] | molar heat capacity at constant pressure ([4]; 308.5 K) [J/K/mol] | molar heat capacity at constant pressure ([4]; 318.5 K) [J/K/mol] | molar heat capacity at constant pressure ([4]; 328.4 K) [J/K/mol]
240.3 ± 3.9 | 244.7 ± 4 | 249.4 ± 4.1 | 254.4 ± 4.1 | 852.93 ± 0.71 | 844.89 ± 0.71 | 836.81 ± 0.71 | 828.69 ± 0.71 | Cc1ccc(C(C)C)cc1 [1-(1-methylethyl)-4-methylbenzene] |  |  |  |  |  |  |  | 
112 ± 1.8 | 116.4 ± 1.9 | 121 ± 2 | 125.6 ± 2 | 785.11 ± 0.71 | 776.44 ± 0.71 | 767.62 ± 0.71 | 758.6 ± 0.71 | CCO [ethanol] |  |  |  |  |  |  |  | 
 |  |  |  |  |  |  |  | CCO [ethanol] + Cc1ccc(C(C)C)cc1 | 785.11 ± 0.71 | 776.44 ± 0.71 | 767.62 ± 0.71 | 758.6 ± 0.71 | 112 ± 1.8 | 116.4 ± 1.9 | 121 ± 2 | 125.6 ± 2
